One compound from patent US11219625B2, “Inhibitors of N-linked glycosylation and methods using same” (YALE UNIVERSITY, priority 2015, dated 2022) can be followed below.

In one assay the test system is H1581 cells. Kind of assay: MTT proliferation assay, H1581. Format: cell-based. The settings on record: H1581, 10 μM NGI-1, 5 d. Here is the method: FIGS. 4A-4H illustrate the finding that NGI-1 blocks RTK driven proliferation. FIG. 4A illustrates western blot analysis of EGFR phosphorylation (Y1173) and gel mobility in PC9 (EGFR-mutant) and A549 (k-ras mutant) NSCLC cells after 10 μM NGI-1 treatment for 24 h. […] Actin expression was used as a control for protein loading. FIG. 4B illustrates MTT assays results of PC9 following treatment with 10 μM NGI-1 or 1 μM tunicamycin for a total of 5 d. Relative proliferation id reported in fold increase from day 0. FIG. 4C illustrates MTT assays results of A549 following treatment with 10 μM NGI-1 or 1 μM tunicamycin for a total of 5 d. Relative proliferation id reported in fold increase from day 0. FIG. 4D illustrates protein phosphorylation profiles of PC9 cells analyzed by phospho-protein array to assess the response of PC9 to 10 μM NGI-1 for 24 h. FIG. 4E illustrates protein phosphorylation profiles of A549 cells analyzed by phospho-protein array to assess the response of A549 to 10 μM NGI-1 for 24 h. […]
Growth rates were determined by CellTiter 96 NonRadioactive Cell Proliferation Assay (Promega; Madison, Wis. USA) according to the manufacturer's directions. […] Cell numbers were estimated after 0, 3, and 5 days by adding MTT [(3-(4,5-Dimethylthiazol-2-yl)-2,5-diphenyltetrazolium bromide] reagent to the wells 4 hours before taking the spectrophotometric reading (absorbance at 570 nm).

Another assay deals with A549 cells. Kind of assay: Cell cycle distribution by flow cytometry, A549. Format: cell-based. The settings on record: A549, NGI-1 24 h. Here is the method: FIGS. 5A-5G illustrate NGI-1 induces G1 arrest and senescence in EGFR addicted tumor cells. FIG. 5A illustrates cell cycle distribution of PC9 cells after 24 h NGI-1 treatment for 24 h determined by flow cytometry. […] FIG. 5B illustrates cell cycle distribution of A549 cells after 24 h NGI-1 treatment for 24 h determined by flow cytometry. FIG. 5C illustrates western blot time course of cyclin D1 expression in PC9 and A549 cells after NGI-1 treatment. FIG. 5D illustrates quantitative real-time PCR analysis of PC9 and A549 cells. A time course of cyclin D1 expression levels relative to GAPDH is represented. […] FIG. 5F illustrates senescence of PC9 cells explored by: cell autofluorescence, measured by flow cytometry using a detector for PE/YFP; lipofuscin accumulation, detected by confocal laser scanning microscopy using an excitation laser of 405 nm with acquired signals from spectrums of yellow 575-620 nm; and morphology changes, enlarged vs. flattened. […] Significance was calculated using a T test (*p<0.05. **p<0.01). FIG. 5G illustrates senescence of A549 cells explored by: cell autofluorescence, measured by flow cytometry using a detector for PE/YFP; lipofuscin accumulation, detected by confocal laser scanning microscopy using an excitation laser of 405 nm with acquired signals from spectrums of yellow 575-620 nm; and morphology changes, enlarged vs. flattened. […]

As for `Cc1cnc(NC(=O)c2cc(S(=O)(=O)N(C)C)ccc2N2CCCC2)s1` [NGI-1, 5-(N,N-Dimethylsulfamoyl)-N-(5-methylthiazol-2-yl)-2-(pyrrolidin-1-yl)benzamide], in the assay with H1581 cells, the “effect on proliferation, MTT” value is reported as “blocked proliferation of the H1581 cell line”. In the assay with A549 cells, the cell cycle distribution result is reported as “did not significantly change the cell cycle distribution”.
